Experimental data: publication PMC12396409, “Screening and hit evaluation of a microbial metabolite library against the pathogenic Plasmodium falciparum and Toxoplasma gondii parasites” (International Journal for Parasitology: Drugs and Drug …, 2025)

Experiments:
[1] = test system: P. falciparum 3D7 parasites; assay: P. falciparum growth inhibition assay, 1-cycle (72 h treatment), SYBR DNA staining (library screen at 2 μg/mL and dose-response); assay type: cell-based, Plasmodium falciparum; settings: for Pf_72h_%Growth_Rep1: replicate 1; for Pf_72h_%Growth_Rep2: replicate 2
[2] = test system: P. falciparum 3D7 parasites; assay: P. falciparum growth inhibition assay, 2-cycle (120 h treatment), delayed-death screen and dose-response; assay type: cell-based, Plasmodium falciparum; settings: for Pf_120h_%Growth_Rep1: replicate 1; for Pf_120h_%Growth_Rep2: replicate 2
[3] = test system: T. gondii RH strain (RH-Tub-eYFP) tachyzoites; assay: microbe, parasite or virus in culture; assay type: cell-based, Toxoplasma gondii; settings: 72 h; for Tg_72h_%Growth_Rep1: replicate 1; for Tg_72h_%Growth_Rep2: replicate 2
[4] = P. falciparum, 72 h, parasite screen 2 μg/mL, % growth
[5] = P. falciparum, 120 h, parasite screen 2 μg/mL, % growth
[6] = T. gondii, parasite screen 2 μg/mL, % growth
[7] = library screen at 2 μg/mL, 72 h, % growth
[8] = library screen at 2 μg/mL, 120 h, % growth
[9] = library screen at 2 μg/mL, % growth
[10] = P. falciparum 3D7, 72 h, parasite screen at 2 μg/mL, % growth
[11] = P. falciparum 3D7, 120 h, parasite screen at 2 μg/mL, % growth
[12] = T. gondii, parasite screen at 2 μg/mL, % growth
[13] = P. falciparum, 72 h, screen at 2 μg/mL
[14] = P. falciparum, 120 h, screen at 2 μg/mL

## CC[C@@H](O)[C@@](C)(O)[C@@H]1OC(=O)[C@H](C)[C@@H](O[C@H]2C[C@@](C)(OC)[C@@H](O)[C@H](C)O2)[C@H](C)[C@@H](O[C@@H]2O[C@H](C)C[C@H](N(C)C)[C@H]2O)[C@@]2(C)CC(C)=C(O2)[C@@H]1C [Pseudoerythromycin A enol ether]
[1]; [4]
  Pf_72h_%Growth_Rep1: 72.76%
  Pf_72h_%Growth_Rep2: 82.73%
[2]; [5]
  Pf_120h_%Growth_Rep1: 72.95%
  Pf_120h_%Growth_Rep2: 110.79%
[3]; [6]
  Tg_72h_%Growth_Rep1: 127.77%
  Tg_72h_%Growth_Rep2: 87.62%

## CCCCCC[C@H]1C(=O)O[C@H](C)[C@H](NC(=O)c2cccc(NC=O)c2O)C(=O)O[C@@H](C)[C@@H]1OC(=O)CC(C)C [Antimycin A1]
[1]; [7]
  Pf_72h_%Growth_Rep1: 7.57%
  Pf_72h_%Growth_Rep2: 13.46%
[2]; [8]
  Pf_120h_%Growth_Rep1: -1.25%
  Pf_120h_%Growth_Rep2: 6.08%
[3]; [9]
  Tg_72h_%Growth_Rep1: 5.65%
  Tg_72h_%Growth_Rep2: 4.89%

## O=C(O)C1CSC(c2ccccc2O)=N1 (stereo not drawn) [Dihydroaeruginoic acid]
[1]; [7]
  Pf_72h_%Growth_Rep1: 74.36%
  Pf_72h_%Growth_Rep2: 72.53%
[2]; [8]
  Pf_120h_%Growth_Rep1: 53.55%
  Pf_120h_%Growth_Rep2: 57.05%
[3]; [9]
  Tg_72h_%Growth_Rep1: 51.46%
  Tg_72h_%Growth_Rep2: 84.93%

## COc1cc2c(c3oc4cccc(O)c4c(=O)c13)[C@@H]1C=CO[C@@H]1O2 [Sterigmatocystin]
[1]; [4]
  Pf_72h_%Growth_Rep1: 4.81%
  Pf_72h_%Growth_Rep2: 2.16%
[2]; [5]
  Pf_120h_%Growth_Rep1: 5.33%
  Pf_120h_%Growth_Rep2: 4.61%
[3]; [6]
  Tg_72h_%Growth_Rep1: 117.93%
  Tg_72h_%Growth_Rep2: 89.47%

## Cc1cc(O)c(C)c(O)c1C(=O)O [BIA-M1661]
[1]; [10]
  Pf_72h_%Growth_Rep1: 76.46%
  Pf_72h_%Growth_Rep2: 83.29%
[2]; [11]
  Pf_120h_%Growth_Rep1: 67.73%
  Pf_120h_%Growth_Rep2: 68.25%
[3]; [12]
  Tg_72h_%Growth_Rep1: 153.94%
  Tg_72h_%Growth_Rep2: 85.55%

## Cn1ncnc2c(=O)n(C)c(=O)nc1-2 [Toxoflavin]
[1]; [13]
  Pf_72h_%Growth_Rep1: 6.97%
  Pf_72h_%Growth_Rep2: -1.92%
[2]; [14]
  Pf_120h_%Growth_Rep1: 16.11%
  Pf_120h_%Growth_Rep2: 20.32%
[3]; T. gondii, screen at 2 μg/mL
  Tg_72h_%Growth_Rep1: 3.96%
  Tg_72h_%Growth_Rep2: 6.88%

## C=CC(C)(C)c1[nH]c2ccccc2c1C[C@@H]1NC(=O)[C@@H]2CCCN2C1=O [Deoxybrevianamide E]
[1]; [13]
  Pf_72h_%Growth_Rep1: 84.72%
  Pf_72h_%Growth_Rep2: 85.50%
[2]; [14]
  Pf_120h_%Growth_Rep1: 100.44%
  Pf_120h_%Growth_Rep2: 95.74%
[3]; T. gondii, screen at 2 μg/mL
  Tg_72h_%Growth_Rep1: 164.73%
  Tg_72h_%Growth_Rep2: 103.33%

## Cc1cc(O)c(C=O)c2c1C(=O)Oc1c(CO)c(O)c3c(c1O2)C(O)OC3=O (stereo not drawn) [Salazinic acid]
[1]; [4]
  Pf_72h_%Growth_Rep1: 86.18%
  Pf_72h_%Growth_Rep2: 54.69%
[2]; [5]
  Pf_120h_%Growth_Rep1: 77.56%
  Pf_120h_%Growth_Rep2: 74.04%
[3]; [6]
  Tg_72h_%Growth_Rep1: 117.03%
  Tg_72h_%Growth_Rep2: 97.23%

## CN1C(=O)c2ccccc2-n2c(nc3ccccc3c2=O)[C@@H]1Cc1ccccc1 [Benzomalvin A]
[1]; [7]
  Pf_72h_%Growth_Rep1: 68.69%
  Pf_72h_%Growth_Rep2: 85.94%
[2]; [8]
  Pf_120h_%Growth_Rep1: 152.22%
  Pf_120h_%Growth_Rep2: 94.98%
[3]; [9]
  Tg_72h_%Growth_Rep1: 76.13%
  Tg_72h_%Growth_Rep2: 90.69%

## C[C@@H]1Cc2c(Cl)cc(C(=O)N[C@@H](Cc3ccccc3)C(=O)O)c(O)c2C(=O)O1 [BIA-O1195]
[1]; [10]
  Pf_72h_%Growth_Rep1: 84.32%
  Pf_72h_%Growth_Rep2: 95.25%
[2]; [11]
  Pf_120h_%Growth_Rep1: 103.82%
  Pf_120h_%Growth_Rep2: 136.40%
[3]; [12]
  Tg_72h_%Growth_Rep1: 120.41%
  Tg_72h_%Growth_Rep2: 95.09%
